Experimental data reported in patent US6699851B2, “Cytotoxic compounds and their use” (Ardenia Investments, Ltd., priority 2000, dated 2004).
Values joined by “and” are separate entries in the source; they are usually repeats but may differ in a detail not shown here. Identical values can stand only once.

Experiments:
[1] = system: HeLa cell line of human cervical carcinoma; assay: Assay of cytotoxicity: HeLa cell growth inhibition (viable cell count, trypan blue exclusion); format: cell-based; settings: compound alone; for number of living cells: three days of cultivation
Method: The assay of cytotoxicity of the inventive preparations was carried out on the well-known human cervical carcinoma cell line HeLa. HeLa cells were cultivated in full cultivation medium, containing 80% of Eagle Minimal Essential Medium with glutamine (Sigma), 20% of normal bovine serum, penicillin 100 IE/ml and streptomycin 100 μg/ml. HeLa cell at concentration of 10^5 cells/ml were seed in 24-well plates for adhesive cell lines (Sarstedt) in volume of 2 ml per well. HeLa cells were cultivated in CO2-incubator at temperature 37° C. in humidified atmosphere, consisting of 95% air and 5% CO2. On the next day, the experimental cultures were supplemented with solutions of the inventive preparations in normal bovine serum (NBS) in a volume of 20 μl, in order to obtain the necessary concentration for studying these in cultures. Control cultures were supplemented with normal bovine serum. After that HeLa cells were cultivated two days again at the same conditions. On the third day, HeLa cells from each cultures were harvested separately using versen. The number of viable cells was counted using tryphan blue exclusion test and a hemocytometer.
For evaluation of the cytotoxic action of these assayed preparations on HeLa cells the means value and standard errors of means of viable cell numbers were calculated. The cell growth inhibition (%) was calculated as: [formula]
The extent of cell growth inhibition caused by the assayed preparations was used for evaluation of their cytotoxicity.

[2] = system: Ehrlich ascites carcinoma (EAC); assay: Effect of pretreatment with compositions on antitumour action of DXR in mice with EAC; format: in vivo; settings: DXR alone (positive control) 3.5 mg/kg i.v. day 1, 3, 5, 7, day 8
Method: Randombred albino mice of the ICR line, female, from own rearing were used in the study. The room for animal housing is provided with filtered air at 15 changes per hour, temperature of 19-21° C., relative humidity of 50-60% and regulated light day of 12 hours with change of light and darkness at 6 h a.m. and 6 h p.m. The mice were kept in transparent polycarbonate cages with floor area of 600 cm^2 containing softwood sawdust bedding. The animals had free access to bottles with domestic quality drinking tap water and to standard feeding for growing animals ad libidum. The mice age 2-2.5 months, weighing 20-23 g were randomly distributed to the control and test groups, standardised by mean weights. The control and test groups included 15 and 12 animals respectively. Specific earmarks identified the mice from each group. […]
The mice were killed by cervical dislocation one day later after the final treatment with the test substances on day 8. Ascites fluids were removed, collected, their volumes were recorded, and abdominal cavities were washed by saline 6-7 times and both fluids were pooled. Volumes of tumour cell pellet after centrifugation at 1000 r.p.m. for 10 min were also recorded. Number of viable tumour cells was counted by haemocytometer. Means and standard errors for each of animal groups were calculated. […] Influence of the composition on EAC growth inhibition was evaluated by: [formula] […]

[3] = first series of concentrations (5.00-6.59×10^−10 mol/l final)
[4] = second series of concentrations (10.00-13.17×10^−10 mol/l final)

Structure (SMILES) | cell growth inhibition [1, 3] [%] | number of living cells [1, 3] | cell growth inhibition [1, 4] [%] | number of living cells [1, 4] | EAC growth inhibition [2] | number of tumour cells (EAC cells in abdominal cavity) [2]
CC1=C(/C=C/C(C)=C/C=C/C(C)=C/C(=O)N[C@@H](Cc2ccc(OP(=O)(O)O)cc2)C(=O)O)C(C)(C)CCC1 (stereo in doubt) [C11, N-(all-trans-retinoyl)-O-phospho-L-tyrosine] | 17.1 | 376.7±24.52 ×10^3 | 5.2 | 430.8±16.37 ×10^3 | – | –
COc1cccc2c1C(=O)c1c(O)c3c(c(O)c1C2=O)C[C@@](O)(C(=O)CO)C[C@@H]3O[C@H]1C[C@H](N)[C@H](O)[C@H](C)O1 [DXR, Doxorubicin] | – | – | – | – | 42.8% and 45.1% and 47.3% and 39.4% and 44.5% | 525.2±74.5 ×10^6 and 436.3±51.8 ×10^6 and 614.4±60.2 ×10^6 and 542.6±50.1 ×10^6 and 534.8±39.3 ×10^6
CCC=CCC=CCC=CCC=CCC=CCC=CCCC(=O)NCCOP(=O)(O)O [C6, N-docosahexaenoyl-O-phospho-2-aminoethanol] | 6.6 | 424.2±18.41 ×10^3 | 7.4 | 420.8±27.79 ×10^3 | – | –
